Experiments:
[1] = tested on: advanced solid tumors or B-cell lymphomas; assay: phase 1 part of phase 1/2 study (NCT01897571), tazemetostat monotherapy
[2] = tested on: relapsed or refractory diffuse large B-cell lymphoma (DLBCL) or follicular lymphoma (FL); assay: phase 2 study (NCT01897571): objective response to tazemetostat by NGS molecular profile of archive tumor; format: in vivo, human
Procedure: […]. […] The primary study endpoint is objective overall response rate.
During screening, archive tumor- and/or plasma-derived circulating tumor DNA (ctDNA) samples were obtained. Archive tumor was analyzed prospectively for EZH2-activating mutations Y646F, Y646N, Y646X (Y646H, Y646C, and Y646S), A682G, and A692V using a cobas® EZH2 Mutation Test (Roche Molecular Systems, Inc., Pleasanton, CA, USA). Next generation sequencing (NGS) was performed retrospectively on DNA derived from archive tumor and plasma samples to identify somatic mutations, amplifications, and translocations using an NHL-specific 62-gene panel on the Illumina HiSeq 2500 platform (Illumina, Inc., San Diego, CA, USA) with 100 bp paired-end reads (Table 1).
ctDNA was approximately 20,000 X for mutations and 3700 X for structural alterations. Sequencing data were aligned to the human reference sequence (hg19) and analyzed using validated cancer genome analysis algorithms (Personal Genome Diagnostics, Baltimore, MD, USA). EZH2 mutation detection rates in archive tumor were ~12% in DLBCL and 19% in FL in the total phase 2 cohort (Table 2), consistent with previous reports.

oral bioavailability = conditions: in vivo
[3] = Genetic Profile 1, patients matching profile (19)
[4] = Genetic Profile 1, patients not matching profile (73)
[5] = Genetic Profile 2, patients matching profile (26)
[6] = Genetic Profile 2, patients not matching profile (66)

Question: What does the source list for CCN(c1cc(-c2ccc(CN3CCOCC3)cc2)cc(C(=O)NCc2c(C)cc(C)[nH]c2=O)c1C)C1CCOCC1 [tazemetostat]?
Answer: safety profile as monotherapy ([1]; monotherapy, patients): acceptable; objective responses ([1]; phase 1, adult patients, tumors exhibiting mutated or wild-type EZH2): objective responses to tazemetostat were observed; Nonresponder (SD/PF/UK), % [2, 3]: 42.1%; Responder (CR/PR), % [2, 3]: 57.9%; Nonresponder (SD/PF/UK), % [2, 4]: 80.8%; Responder (CR/PR), % [2, 4]: 19.2%; Nonresponder (SD/PD/UK), % [2, 5]: 42.3%; Responder (CR/PR), % [2, 5]: 57.7%; Nonresponder (SD/PD/UK), % [2, 6]: 84.8%; Responder (CR/PR), % [2, 6]: 15.2%; Response preference ([2]; gene EZH2, P-value 0.0253): Mutant; Response preference ([2]; gene MYD88 L273P, P-value 0.0841): Mutant; Response preference ([2]; gene STAT6, P-value 0.0753): Mutant; objective overall response rate ([2]; patients matching multigene predictor: wild-type MYC and/or HIST1H1E with mutated STAT6 and/or MYD88 in archive tumor (11/19)): ~ 58%; objective overall response rate ([2]; patients not matching the multigene predictor (14/73)): ~19%; oral bioavailability (oral bioavailability): orally bioavailable
